The test system of experiment [1] is Phosphorylated Myosin Light Chain (MLC) and actin stress fibers. Briefly: MLC phosphorylation and actin stress fiber formation in Caco-2 cells (microscopy score). The class given is cell-based. How it is done: (§1) To measure MLC phosphorylation and actin stress fiber formation, the following cell lines were used: Caco-2, ECV304 and HpMec. All cells were grown at standard conditions (37° C., 5% CO2 and 95% rH). Culture Medium used: for Caco-2: DMEM+1 mM sodium pyruvate+20% FCS+1% Penicillin Streptomycin; for ECV 304: RPMI 1640+10% FCS+1% Penicillin Streptomycin; and for HpMec: IMDM+25 mM Hepes+10% Human Serum+1% Penicillin Streptomycin+1% L-Glutamine+ECGS/Heparin 2 ml. 4 h before the experiment, cells were starved by serum withdrawal. To induce GEF-activity, cells were stimulated with thrombin, LPS or PMA for the indicated time in presence or absence of 50 μg/ml XIB1-a or XIB1-b. After stimulation, cells were fixed using 4% PFA. Phospho MLC was detected by using the “rabbit anti phosphor-myosin light chain antibody” from Chemicon in a concentration of 3 μl/ml in PBS (Gibco) supplemented with 0.1% Triton X-100. As detection antibody, the Alexa 448 tagged “anti Rabbit IgG Antibody” from Invitrogen was used in a concentration of 0.5 μl/ml in PBS (Gibco) supplemented with 0.1% Triton X-100. Aktin was detected using TRITC-labeled Phalloidin in a concentration of 0.5 μl/ml in PBS (Gibco) supplemented with 0.1% Triton. Stained cells were analyzed by using a Zeiss Laser Scan microscope. Evaluation of the cyto-skeletal activation was performed by 2 independent observers that were blinded to the conditions. Evaluation criteria were set as follows:
(§2) Actin: parallel actin bundles absent=0; distinct bundle formation=1; prominent parallel bundles=2; Phospho-MLC: present at cell poles=0; slight co-localization with actin bundles=1; prominent co-localization with actin bundles=2

For experiment [2] the test system is unchanged. Briefly: MLC phosphorylation and actin stress fiber formation in HpMec cells (microscopy score). The class given is cell-based. On the procedure:
as §1, §2

In a further experiment the test system is LPS induced lung injury. Briefly: LPS induced lung injury, bronchoalveolar lavage. The class given is in vivo. The following applies: mice; for effect on barrier function in the LPS-inhalation model (neutrophils and albumin in BALF): equal in groups treated intraperitoneally and intratracheally; for counts of neutrophils in the BALF (mean +/ SD) / albumine content of BALFs (mean +/ SD): n = 20. How it is done:
Male C57Bl/6 Mice (Charles River, Germany) were kept at the animal facility of the Medical University of Vienna, feed with standard diet and water was provided ad libitum. All interventions were performed according to the guide lines of AAALAC (Association for Assessment and Accreditation of Laboratory Animal Care). All experiment were approved by the Ethic committee of the Medical University of Vienna. Mice were anesthetized with isoflouran and treated with 100 ng of LPS (E. coli O55:B5, Sigma Aldrich) intranasally. XIB1-a or XIB1-b was applied either intra-peritoneally (2×2 mg/kg) or via inhalation (2×4 mg/kg), first application was performed concomitantly with LPS administration, the second application was performed 1 h after the LPS inhalation.
The trachea was exposed through a midline incision and canulated with a sterile 20-gauge catheter (BD Venflon™, Becton Dickinson Infusion Therapy, Helsingborg, Sweden). Bilateral broncho-alveolar lavage fluid (BALF) was gained by instilling two 0.5 ml aliquots of sterile saline. Approximately 0.9-1 ml BALF was retrieved per mouse. Total cell numbers were counted from each sample using a hemo-cytometer (Türck chamber), BALF differential cell counts were done on cytospin preparations stained with Giemsa. For protein measurements, BALF was diluted 1:2 in buffer containing 300 mM NaCl, 30 mM Tris, 2 mM MgCl2, 2 mM CaCl2, and Pepstatin A, Leupeptin and Aprotinin (all 20 ng/ml; pH 7.4). Protein levels in BALF were measured using the BCA protein kit according to the manufacturer's instructions (Pierce, Rockford, Ill.).
In addition, the same set-up as described above was used for comparing the impact of XIB1-b compared to Bβ15-42 (PLoS ONE (2009), 4(4): e5391), a peptide derived from fibrin having the sequence […] (SEQ ID NO: 41). Bβ15-42 was added in the same manner as XIB1-b. Again, protein content and cell count of BALF was measured.

The subject of a further experiment is GEF. Briefly: GEF-activity in membrane fractions of HpMec cells (RhoGEF Exchange Assay). Type of experiment: cell-based. Particulars: HpMec. How it is done:
To measure the GEF-inhibitory effect, the following cell lines were used: Caco-2 (epithelial cells from adeno-carcinoma), ECV304 (epithelial cells from bladder carcinoma) and HpMec (endothelial cells, immortalized pulmonary micro-vascular cells). All cells were grown at standard conditions (37° C., 5% CO2 and 95% relative humidity (rH)). Culture Medium used for Caco-2: DMEM+1 mM sodium pyruvate+20% FCS+1% Penicillin Streptomycin; for ECV 304: RPMI 1640+10% FCS+1% Penicillin Streptomycin; and for HpMec: IMDM+25 mM Hepes+10% Human Serum+1% Penicillin Streptomycin+1% L-Glutamine+ECGS/Heparin 2 ml. 4 h before the experiment, cells were starved by serum withdrawal. To induce GEF-activity, cells were stimulated with thrombin, lipopolysaccharide (LPS) or PMA for the indicated time in presence or absence of 50 μg/ml XIB1-a or XIB1-b. After stimulation, membrane fractions were prepared by using the commercial available “Compartemental Protein Extraction Kit” from Biochain institutes. Membrane fractions were prepared according to the manufacturer instructions. GEF-activity in membrane lysates was determined by using “RhoGEF Exchange Assay Biochem Kit” from Cytoskeleton Inc. according to manufacturer instructions. GEF-activity was measured as fluorescence at using the Fluoroskan Ascent FL 2.6 from Thermo Electron Corporation. The excitation Filter wavelength was set at 355 nm and the emission filter wavelength at 460 nm.

Setting [3] is: CaCo-2, PMA 1 μg/ml, 1 min, with or without peptide 50 μg/ml.
The mark [4] stands for this setting: CaCo-2, PMA 1 μg/ml, 5 min, with or without peptide 50 μg/ml.
Setting [5] is: CaCo-2, no stimulus, 1 min, peptide 50 μg/ml.
The mark [6] stands for this setting: CaCo-2, no stimulus, 5 min, peptide 50 μg/ml.
[7] abbreviates: Thrombin 1 U/ml, 1 min, with or without peptide 50 μg/ml.
The mark [8] stands for this setting: Thrombin 1 U/ml, 5 min, with or without peptide 50 μg/ml.
Setting [9] is: no stimulus, 1 min, peptide 50 μg/ml.
The mark [10] stands for this setting: no stimulus, 5 min, peptide 50 μg/ml.
Setting [11] is: 6 h after LPS administration, intraperitoneal application (2×2 mg/kg).
[12] abbreviates: 6 h after LPS administration, intratracheal application.

The values that follow come from patent US9012403B2, “Peptides as active agents to stabilize biological barriers” (XiberScience GmbH, priority 2010, dated 2015).

Marks after values point to notes of the source that are not given here.

In the case of “GRRPGGASGG (/note=“Description of artificial sequence cingulin-derived peptide XIB1-a”)”, the “MLC phosphorylation and actin stress fiber formation, evaluation score (Mean)” value in experiment [1] (setting [3]) is 1*; in experiment [1] (setting [4]) it was 2*; in experiment [1] (setting [5]) it was 0; in experiment [1] (setting [6]), 0; in experiment [2] (setting [7]), 1*; in experiment [2] (setting [8]) it was 0.3*. For the same sequence, the “MLC phosphorylation and actin stress fiber formation, evaluation score (Mean)” value in experiment [2] (setting [9]) and in experiment [2] (setting [10]) was 0 in each case. Also, in the experiment on LPS induced lung injury, the “effect on barrier function in the LPS-inhalation model (neutrophils and albumin in BALF)” value is listed as “beneficial effect”. For the same sequence, the “GEF-activity, relative values compared to unstimulated control (Mean)” value with GEF (setting [7]) is on record as 1.8*; in the experiment on GEF (setting [8]) it was 2.1*; in the experiment on GEF (setting [9]) it was 1; in the experiment with GEF (setting [10]) it was 1.

On to “GRRPLGGISGG (/note=“Description of artificial sequence cingulin-derived peptide XIB1-b”)”, for which the “MLC phosphorylation and actin stress fiber formation, evaluation score (Mean)” value in experiment [1] (setting [3]) is on record as 1*; in experiment [1] (setting [4]), 2*; in experiment [1] (setting [5]), 0; in experiment [1] (setting [6]), 0; in experiment [2] (setting [7]) it was 1*; in experiment [2] (setting [8]), 0.3*. Further, the “MLC phosphorylation and actin stress fiber formation, evaluation score (Mean)” value in experiment [2] (setting [9]) and in experiment [2] (setting [10]) was 0 in each case. The “counts of neutrophils in the BALF (mean +/ SD)” value with LPS induced lung injury (comparison with Bβ15-42 (Table 6), 6 h after LPS, intratracheal plus intraperitoneal application) was 15 +/− 15 neutrophils/ml (× 10^3); in the experiment with LPS induced lung injury (setting [11]) it was 25 +/− 22 neutrophils/ml (× 10^3); with LPS induced lung injury (setting [12]), 28 +/− 23 neutrophils/ml (× 10^3). Also, the “albumine content of BALFs (mean +/ SD)” value came out at 120 ± 12 µg/mL in the experiment with LPS induced lung injury (setting [11]) and 98 ± 20 µg/mL with LPS induced lung injury (setting [12]). Also, in the experiment with LPS induced lung injury, the “effect on barrier function in the LPS-inhalation model (neutrophils and albumin in BALF)” value was “beneficial effect”. The “GEF-activity, relative values compared to unstimulated control (Mean)” value in the experiment on GEF (setting [7]) is listed as 1.8*; in the experiment with GEF (setting [8]) it was 2.1*; in the experiment with GEF (setting [9]), 1; in the experiment with GEF (setting [10]) it was 1.
